How the values were obtained:
[1] = system: primary rat immature cortical neurons; assay: Neurotoxin-induced loss of viability of primary immature cortical neurons (LDH leakage); type: cell-based; settings: glutamate 10 mM, 24 h; for protection against loss of neuronal viability by neurotoxins: L-homocysteic acid 1 mM, BSO 0.15 mM, BSO + arachidonic acid 0.05 mM, α-tocotrienol (nM) 5 min before
Method: Referring to FIG. 1, primary rat immature cortical neurons (A-C) or HT4 (D) were either treated or not with α-tocotrienol (as indicated) for 5 min and challenged with either glutamate (10 mM; A); L-homocysteic acid (1 mM; B); or buthionine sulfoximine (0.15 mM; BSO) for 24 h. […] Cells were counted at 12, 24 and 36 h after glutamate challenge.
(§1) First, we tested for the involvement of 12-LOX in the execution of glutamate-induced death in our model. We started by using the 12-LOX specific inhibitor baicalein or BL15. Referring to FIG. 3, HT4 neurons (A) were either treated or not with a-tocotrienol (250 nM) or […] (2.5 μM, 12-lipoxygenase inhibitor) for 5 min and then challenged with glutamate (10 mM). Cell viability was determined using propidium iodide (PI) exclusion flow cytometry assay. PI−=live; PI+=dead. Rat primary immature cortical neurons (B-D) were either treated or not with α-tocotrienol (100 nM) or BL15 (2.5 μM) for 5 min and challenged either with glutamate (10 mM; B); L-homocysteic acid (1 mM; C) or buthionine sulfoximine (0.15 mM; BSO; D) for 24 h. Arachidonic acid, 50 μM for 24h. BL15, Baicalein 5,6,7-trihydroxy-flavone.
Cell culture. Mouse hippocampal HT4 cells, were grown in Dulbecco's Modified Eagle Medium supplemented with 10% fetal calf serum, penicillin (100 U/ml) and streptomycin (100 μg/ml) at 37° C. in a humidified atmosphere containing 95% air and 5% CO2. HT4 cells were provided by Dr. D. E. Koshland Jr. (University of California at Berkeley) (Sen et al., 2000). Primary cortical neurons. Cells were isolated from the cerebral cortex of rat feti (Sprague Dawley; day 17 of gestation) or mouse feti (C57BL/6 mice, day 14 of gestation) as described (Murphy et al., 1990). For 12-LOX knockout studies, neurons were isolated from the feti of B6.129S2-Alox15^tm1Fun (Jackson Laboratory, […].). After isolation from the brain, cells were counted and seeded in culture plates at a density of 2-3×10^6 cells per 35 mm plate (Murphy et al., 1990). Cells were grown in Minimal Essential Medium (MEM) supplemented with 10% heat-inactivated fetal bovine serum, 40 μM cystine and antibiotics (100 μg/ml streptomycin, 100 units/ml penicillin, 0.25 μg/ml amphotericin). Cultures were maintained at 37° C. in 5% CO2 and 95% air in a humidified incubator. All experiments were carried out 24 h after plating.
Treatment with neurotoxic agents. Immediately before experiments, culture media was replaced with fresh medium supplemented with serum and antibiotics. Glutamate (10 mM) was added to the media as aqueous solution (Han et al., 1997a; Sen et al., 2000; Tirosh et al., 2000). […] Other agents used to induce death in neuronal cells have been described in the pertinent figure legends.
Vitamin E treatment. Stock solutions (10^3X of working concentration) of α-tocotrienol was prepared in ethanol. […]
Determination of cell viability. Viability of HT4 cells was determined using propidium iodide exclusion assay using the flow cytometer as described by us previously (Sen et al., 2000; Tirosh et al., 2000). Because primary neuronal cultures tend to aggregate during flow cytometry, the viability of these cells was assessed by measuring lactate dehydrogenase (LDH) leakage (Han et al., 1997a) from cells to media 24 h following glutamate treatment using in vitro toxicology assay kit from Sigma Chemical Co. (St. Louis, Mo., USA). […]

primary neurons = assay: Cellular glutathione (GSH) in glutamate-treated primary neurons (HPLC-coulometric); type: cell-based, rat; settings: glutamate 10 mM; α-tocotrienol 100 nM or BL15 2.5 μM
Method: as §1, with “5,6,7-trihydroxy-flavone. […] B-E: †, lower compared to the corresponding control non-treated group; *, higher compared to the corresponding toxin-treated group. P<0.05.” for “5,6,7-trihydroxy-flavone.”
Glutathione assay. Glutathione (GSH) was detected using a HPLC-coulometric electrode array detector (Coularray Detector—model 5600 with 12 channels; ESA Inc., Chelmsford, Mass.). […] Glutathione was detected at channels set at following potentials: I) 600 mV, II) 700 mV; and II) 800 mV. Signals from channel set at 800 mV were used for quantification (Sen et al., 2002).

SMILES: CC(C)=CCC/C(C)=C/CC/C(C)=C/CC[C@]1(C)CCc2c(C)c(O)c(C)c(C)c2O1 [α-tocotrienol]
- protection against glutamate-induced death of primary neurons ([1]; α-tocotrienol 100 nM or BL15 2.5 μM 5 min before): protected neurons against glutamate challenge
- protection against loss of neuronal viability by neurotoxins [1]: protects
- protection against loss of neuronal viability by neurotoxins ([1]; listed as α-Tocotrienol): total protection
- cellular glutathione (GSH) in protected glutamate-treated primary neurons (primary neurons): loss of cellular glutathione

Reference: US20050228041A1, “Protective and therapeutic uses for tocotrienols” (priority 2003, published 2005)
